From patent publication US11180504B2 (ORCHID PHARMA LTD., priority 2016, dated 2021) come the findings set out here.

≈ marks a conversion by molar mass, not a printed value.

Experiment [1] relates to methicillin-sensitive Staphylococcus aureus. The experiment in a line: MIC by broth micro-dilution (CLSI), methicillin-sensitive S. aureus. The experiment is classed as cell-based. Conditions: Staphylococcus aureus, ATCC 29213 / MSSA, MSSA S. aureus ATCC29213; read-out: MIC. Background: Dilution methods test growth across graded concentrations, often in twofold steps.
For experiment [2], the system named is carbapenem sensitive Escherichia coli. The experiment in a line: MIC by broth micro-dilution (CLSI), carbapenem sensitive E. coli. Particulars: Escherichia coli, ATCC25922, ESBL −ve E. coli ATCC25922; read-out: MIC. The experiment is classed as cell-based.
Experiment [3] concerns carbapenemase producing K. pneumoniae. Description: MIC by broth micro-dilution (CLSI), carbapenemase producing K. pneumoniae. Particulars: Klebsiella pneumoniae, ATCCBAA1705, KPC-2 K. pneumoniae ATCC BAA-1705; read-out: MIC. The experiment is classed as cell-based, Klebsiella pneumoniae.
Experiment [4] deals with carbapenem sensitive Pseudomonas aeruginosa. Description: MIC by broth micro-dilution (CLSI), carbapenem sensitive P. aeruginosa. Type of experiment: cell-based. Particulars: Pseudomonas aeruginosa, ATCC27853, Meropenem susceptible P. aeruginosa ATCC27853; read-out: MIC.

As a reminder, the MIC is the least concentration at which growth counts as inhibited. For `C[C@@H](NC(=O)Cn1cnnn1)[C@H]1C(=O)N2C(C(=O)O)=C(S[C@@H]3CN[C@H](C(=O)N4CC5(CCNCC5)C4)C3)[C@H](C)[C@H]12` [Example 366], the MIC stood at 4 µg/mL (≈ 6.97 µM) in experiment [1], 0.25 µg/mL (≈ 0.436 µM) in experiment [2], 2 µg/mL (≈ 3.49 µM) in experiment [3] and 2 µg/mL (≈ 3.49 µM) in experiment [4].
Consider `C[C@@H](NC(=O)CN1CCC(F)(F)C1)[C@H]1C(=O)N2C(C(=O)O)=C(S[C@@H]3CN[C@H](C(=O)N(C)C)C3)[C@H](C)[C@H]12` [Example 512, (4R,5S,6R)-6-((R)-1-(2-(3,3-difluoropyrrolidin-1-yl)acetamido)ethyl)-3-((3S,5S)-5-(dimethylcarbamoyl)pyrrolidin-3-ylthio)-4-methyl-7-oxo-1-azabicyclo[3.2.0]hept-2-ene-2-carboxylic acid], for which the MIC in experiment [1] was 8 µg/mL (≈ 15.1 µM); in experiment [2], 2 µg/mL (≈ 3.78 µM); in experiment [3], 64 µg/mL (≈ 121 µM); in experiment [4], over 128 µg/mL.
For `C[C@@H](NC(=O)Cn1cnnn1)[C@H]1C(=O)N2C(C(=O)O)=C(SCCN)[C@H](C)[C@H]12` [Example 415, (4R,5S,6R)-6-((R)-1-(2-(1H-tetrazol-1-yl)acetamido)ethyl)-3-(2-aminoethylthio)-4-methyl-7-oxo-1-azabicyclo[3.2.0]hept-2-ene-2-carboxylic acid], the minimum inhibitory concentration (MIC) in experiment [1] was 4 µg/mL (≈ 10.1 µM); in experiment [2], 2 µg/mL (≈ 5.06 µM); in experiment [3], 1 µg/mL (≈ 2.53 µM); in experiment [4] it was 16 µg/mL (≈ 40.5 µM).
Turning to `C[C@@H](NC(=O)Cn1cnnn1)[C@H]1C(=O)N2C(C(=O)O)=C(S[C@@H]3CN[C@H](C(=O)N4CC[C@@H](NC(=O)CCN)C4)C3)[C@H](C)[C@H]12` [Example 492, (4R,5S,6R)-6-((R)-1-(2-(1H-tetrazol-1-yl)acetamido)ethyl)-3-((3S,5S)-5-((R)-3-(3-aminopropanamido)pyrrolidine-1-carbonyl)pyrrolidin-3-ylthio)-4-methyl-7-oxo-1-azabicyclo[3.2.0]hept-2-ene-2-carboxylic acid], the MIC in experiment [1] turned out to be 4 µg/mL (≈ 6.61 µM); in experiment [2], 0.5 µg/mL (≈ 0.827 µM); in experiment [3] it was 2 µg/mL (≈ 3.31 µM); in experiment [4] it was 2 µg/mL (≈ 3.31 µM).
For `C[C@@H](NC(=O)Cn1cnnn1)[C@H]1C(=O)N2C(C(=O)O)=C(S[C@@H]3CN[C@H](C(=O)N4C[C@@H](O)C[C@H]4CN)C3)[C@H](C)[C@H]12` [Example 470, (4R,5S,6R)-6-((R)-1-(2-(1H-tetrazol-1-yl)acetamido)ethyl)-3-((3S,5S)-5-((2S,4S)-2-(aminomethyl)-4-hydroxypyrrolidine-1-carbonyl)pyrrolidin-3-ylthio)-4-methyl-7-oxo-1-azabicyclo[3.2.0]hept-2-ene-2-carboxylic acid], the MIC stood at 4 µg/mL (≈ 7.1 µM) in experiment [1], 0.5 µg/mL (≈ 0.887 µM) in experiment [2], 2 µg/mL (≈ 3.55 µM) in experiment [3] and 4 µg/mL (≈ 7.1 µM) in experiment [4].
Turning to `C[C@@H](NC(=O)Cc1nnn(C)n1)[C@H]1C(=O)N2C(C(=O)O)=C(S[C@@H]3CN[C@H](C(=O)N(C)C)C3)[C@H](C)[C@H]12` [Example 301, (4R,5S,6R)-3-((3S,5S)-5-(dimethylcarbamoyl)pyrrolidin-3-ylthio)-4-methyl-6-((R) - 1-(2-(2-methyl-2H-tetrazol-5-yl)acetamido)ethyl)-7-oxo-1-azabicyclo[3.2.0]hept-2-ene-2-carboxylic acid], the MIC was 16 µg/mL (≈ 31.6 µM) in experiment [1], 4 µg/mL (≈ 7.9 µM) in experiment [2], 64 µg/mL (≈ 126 µM) in experiment [3] and over 128 µg/mL in experiment [4].
Taken in the same sequence, the figures for `C[C@@H](NC(=O)Cn1cnnn1)[C@H]1C(=O)N2C(C(=O)O)=C(S[C@@H]3CN[C@H](C(=O)N4CCC5CNCC54CO)C3)[C@H](C)[C@H]12` (single isomer, unassigned) [Example 561] were 4 µg/mL (≈ 6.78 µM), 0.5 µg/mL (≈ 0.848 µM), 2 µg/mL (≈ 3.39 µM) and 8 µg/mL (≈ 13.6 µM).
On to `C[C@@H](NC(=O)Cn1cnnn1)[C@H]1C(=O)N2C(C(=O)O)=C(S[C@@H]3CN[C@H](C(=O)N4C[C@@H]5C[C@@H](N)C[C@]5(CO)C4)C3)[C@H](C)[C@H]12` [Example 529, (4R,5S,6R)-6-((R)-1-(2-(1H-tetrazol-1-yl)acetamido)ethyl)-3-((3S,5S)-5-((3aR,5R,6aR)-5-amino-3a-(hydroxymethyl)octahydrocyclopenta[c]pyrrole-2-carbonyl)pyrrolidin-3-ylthio)-4-methyl-7-oxo-1-azabicyclo[3.2.0]hept-2-ene-2-carboxylic acid], for which the MIC in experiment [1] came out at 4 µg/mL (≈ 6.63 µM); in experiment [2], 0.25 µg/mL (≈ 0.414 µM); in experiment [3], 2 µg/mL (≈ 3.31 µM); in experiment [4], 1 µg/mL (≈ 1.66 µM).
Turning to `C[C@@H](NC(=O)Cn1cnnn1)[C@H]1C(=O)N2C(C(=O)O)=C(S[C@@H]3CN[C@H](C(=O)N4CCO[C@H]5CNC[C@H]54)C3)[C@H](C)[C@H]12` [Example 471, (4R,5S,6R)-6-((R)-1-(2-(1H-tetrazol-1-yl)acetamido)ethyl)-4-methyl-3-((3S,5S)-5-((4aR,7aS)-octahydropyrrolo[3,4-b][1,4]oxazine-4-carbonyl)pyrrolidin-3-ylthio)-7-oxo-1-azabicyclo[3.2.0]hept-2-ene-2-carboxylic acid], the MIC in experiment [1] amounted to 2 µg/mL (≈ 3.47 µM); in experiment [2], 0.5 µg/mL (≈ 0.869 µM); in experiment [3] it was 2 µg/mL (≈ 3.47 µM); in experiment [4], 4 µg/mL (≈ 6.95 µM).
Turning to `C[C@@H](NC(=O)Cn1cnnn1)[C@H]1C(=O)N2C(C(=O)O)=C(S[C@@H]3CN[C@H](C(=O)N4C[C@H](N)C[C@H]4CO)C3)[C@H](C)[C@H]12` [Example 440, (4R,5S,6R)-6-((R)-1-(2-(1H-tetrazol-1-yl)acetamido)ethyl)-3-((3S,5S)-5-((2S,4R)-4-amino-2-(hydroxymethyl)pyrrolidine-1-carbonyl)pyrrolidin-3-ylthio)-4-methyl-7-oxo-1-azabicyclo[3.2.0]hept-2-ene-2-carboxylic acid], the MIC was determined as 2 µg/mL (≈ 3.55 µM) in experiment [1], 0.25 µg/mL (≈ 0.444 µM) in experiment [2], 1 µg/mL (≈ 1.77 µM) in experiment [3] and 1 µg/mL (≈ 1.77 µM) in experiment [4].
As for `C[C@@H](NC(=O)C(F)F)[C@H]1C(=O)N2C(C(=O)O)=C(S[C@@H]3CN[C@H](C(=O)N4CCc5nc(N)sc5C4)C3)[C@H](C)[C@H]12` [Example 235], the minimal inhibitory concentration (MIC) in experiment [1] is 2 µg/mL (≈ 3.5 µM); in experiment [2] it was 2 µg/mL (≈ 3.5 µM); in experiment [3], 16 µg/mL (≈ 28 µM); in experiment [4], over 128 µg/mL.
For `C[C@@H](NC(=O)C(F)F)[C@H]1C(=O)N2C(C(=O)O)=C(S[C@@H]3CN[C@H](CNC(=O)[C@H]4CC[C@@H](N)C4)C3)[C@H](C)[C@H]12` [Example 258], the MIC in experiment [1] was 1 µg/mL (≈ 1.89 µM); in experiment [2] it was 4 µg/mL (≈ 7.55 µM); in experiment [3], 16 µg/mL (≈ 30.2 µM); in experiment [4], 128 µg/mL (≈ 242 µM).
For the compound `C[C@@H](NC(=O)Cn1cnnn1)[C@H]1C(=O)N2C(C(=O)O)=C(S[C@@H]3CN[C@H](C(=O)N4CCC5(CCCN5)CC4)C3)[C@H](C)[C@H]12` [Example 352, (4R,5S,6R)-3-((3S,5S)-5-(1,8-diazaspiro[4.5]decane-8-carbonyl)pyrrolidin-3-ylthio)-6-((R)-1-(2-(1H-tetrazol-1-yl)acetamido)ethyl)-4-methyl-7-oxo-1-azabicyclo[3.2.0]hept-2-ene-2-carboxylic acid], the MIC in experiment [1] was determined as 4 µg/mL (≈ 6.81 µM); in experiment [2], 0.25 µg/mL (≈ 0.425 µM); in experiment [3], 2 µg/mL (≈ 3.4 µM); in experiment [4], 2 µg/mL (≈ 3.4 µM).
As for `C[C@@H](NC(=O)Cc1nnn(C)n1)[C@H]1C(=O)N2C(C(=O)O)=C(S[C@@H]3CN[C@H](C(=O)N4CC[C@@H](N)C4)C3)[C@H](C)[C@H]12` [Example 302], the MIC in experiment [1] was found to be 2 µg/mL (≈ 3.65 µM); in experiment [2] it was 1 µg/mL (≈ 1.83 µM); in experiment [3], 16 µg/mL (≈ 29.2 µM); in experiment [4], 128 µg/mL (≈ 234 µM).
For the compound `C[C@@H](NC(=O)Cc1nnc(C(F)(F)F)o1)[C@H]1C(=O)N2C(C(=O)O)=C(S[C@@H]3CN[C@H](C(=O)N4CC[C@@H](N)C4)C3)[C@H](C)[C@H]12` [Example 394, (4R,5S,6R)-3-((3S,5S)-5-((R)-3-aminopyrrolidine-1-carbonyl)pyrrolidin-3-ylthio)-4-methyl-7-oxo-6-((R)-1-(2-(5-(trifluoromethyl)-1,3,4-oxadiazol-2-yl)acetamido)ethyl)-1-azabicyclo[3.2.0]hept-2-ene-2-carboxylic acid], the MIC is 8 µg/mL (≈ 13.3 µM) in experiment [1], 2 µg/mL (≈ 3.32 µM) in experiment [2], 32 µg/mL (≈ 53.2 µM) in experiment [3] and 128 µg/mL (≈ 213 µM) in experiment [4].
As to `C[C@@H](NC(=O)Cn1cnnn1)[C@H]1C(=O)N2C(C(=O)O)=C(S[C@@H]3CN[C@H](C(=O)N4CCC(C(=O)N5CC[C@@H](N)C5)CC4)C3)[C@H](C)[C@H]12` [Example 428, (4R,5S,6R)-6-((R)-1-(2-(1H-tetrazol-1-yl)acetamido)ethyl)-3-((3S,5S)-5-(4-((R)-3-aminopyrrolidine-1-carbonyl)piperidine-1-carbonyl)pyrrolidin-3-ylthio)-4-methyl-7-oxo-1-azabicyclo[3.2.0]hept-2-ene-2-carboxylic acid], the MIC amounted to 4 µg/mL (≈ 6.2 µM) in experiment [1], 0.5 µg/mL (≈ 0.775 µM) in experiment [2], 4 µg/mL (≈ 6.2 µM) in experiment [3] and 2 µg/mL (≈ 3.1 µM) in experiment [4].
`C[C@@H](NC(=O)Cn1cnnn1)[C@H]1C(=O)N2C(C(=O)O)=C(S[C@@H]3CN[C@H](C(=O)N4C[C@@H]5CNC[C@]5(CO)C4)C3)[C@H](C)[C@H]12` [Example 525, (4R,5S,6R)-6-((R)-1-(2-(1H-tetrazol-1-yl)acetamido)ethyl)-3-((3S,5S)-5-((3aS,6aS)-3a-(hydroxymethyl)octahydropyrrolo[3,4-c]pyrrole-2-carbonyl)pyrrolidin-3-ylthio)-4-methyl-7-oxo-1-azabicyclo[3.2.0]hept-2-ene-2-carboxylic acid]: the minimum inhibitory concentration (MIC) in experiment [1] was determined as 4 µg/mL (≈ 6.78 µM); in experiment [2], 0.25 µg/mL (≈ 0.424 µM); in experiment [3] it was 2 µg/mL (≈ 3.39 µM); in experiment [4], 0.5 µg/mL (≈ 0.848 µM).
